Assay results as given in PMC10700596 (Nature Communications, 2023).
Where “and” joins values, the source holds several entries; their conditions need not be identical. Equal entries are not always repeated.

How the values were obtained:
Assay type in all cases: cell-based
320 GPCRs [1] = molecular target: 320 GPCRs (Homo sapiens, UniProt Q9NPC1)
320 GPCRs [2] = molecular target: 320 GPCRs (Homo sapiens, UniProt P21731)
320 GPCRs [3] = molecular target: 320 GPCRs (Homo sapiens, UniProt P49238)
320 GPCRs [4] = molecular target: 320 GPCRs (Homo sapiens, UniProt Q9BZJ8)
320 GPCRs [5] = molecular target: 320 GPCRs (Homo sapiens, UniProt O00222)
Chain of 320 GPCRs (Homo sapiens, UniProt O00222) (O00222 34-908): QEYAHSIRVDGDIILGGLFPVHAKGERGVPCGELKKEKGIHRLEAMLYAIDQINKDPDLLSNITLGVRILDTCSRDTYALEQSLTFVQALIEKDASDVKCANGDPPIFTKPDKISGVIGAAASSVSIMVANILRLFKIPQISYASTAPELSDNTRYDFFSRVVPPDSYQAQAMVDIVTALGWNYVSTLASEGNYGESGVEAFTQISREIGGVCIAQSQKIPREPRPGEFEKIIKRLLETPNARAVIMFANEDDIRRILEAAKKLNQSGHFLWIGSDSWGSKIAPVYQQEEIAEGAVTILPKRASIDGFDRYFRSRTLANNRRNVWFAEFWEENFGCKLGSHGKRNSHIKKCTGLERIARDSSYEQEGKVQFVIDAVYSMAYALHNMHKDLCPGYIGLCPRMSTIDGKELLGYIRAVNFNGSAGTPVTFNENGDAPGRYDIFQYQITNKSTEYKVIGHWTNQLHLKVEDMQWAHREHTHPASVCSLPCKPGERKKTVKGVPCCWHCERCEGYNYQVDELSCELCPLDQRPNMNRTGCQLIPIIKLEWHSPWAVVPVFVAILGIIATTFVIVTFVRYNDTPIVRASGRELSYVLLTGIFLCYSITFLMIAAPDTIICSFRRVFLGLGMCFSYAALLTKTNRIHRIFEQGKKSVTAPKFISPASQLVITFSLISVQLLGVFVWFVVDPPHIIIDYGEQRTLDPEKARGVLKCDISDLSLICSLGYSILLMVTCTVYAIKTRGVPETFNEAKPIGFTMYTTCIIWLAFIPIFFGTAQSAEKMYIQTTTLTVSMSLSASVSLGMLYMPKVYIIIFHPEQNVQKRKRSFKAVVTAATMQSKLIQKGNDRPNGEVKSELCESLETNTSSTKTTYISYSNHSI

320 GPCRs [6] = molecular target: 320 GPCRs (Homo sapiens, UniProt O95136)
320 GPCRs [7] = molecular target: 320 GPCRs (Homo sapiens, UniProt Q02643)
320 GPCRs [8] = molecular target: 320 GPCRs (Homo sapiens, UniProt P47211)
320 GPCRs [9] = molecular target: 320 GPCRs (Homo sapiens, UniProt P32248)
320 GPCRs [10] = molecular target: 320 GPCRs (Homo sapiens, UniProt P30968)
320 GPCRs [11] = molecular target: 320 GPCRs (Homo sapiens, UniProt P30411)
320 GPCRs [12] = molecular target: 320 GPCRs (Homo sapiens, UniProt Q8TDV5)
320 GPCRs [13] = molecular target: 320 GPCRs (Homo sapiens, UniProt Q96RI0)
Chain of 320 GPCRs (Homo sapiens, UniProt Q96RI0) (Q96RI0 18-385): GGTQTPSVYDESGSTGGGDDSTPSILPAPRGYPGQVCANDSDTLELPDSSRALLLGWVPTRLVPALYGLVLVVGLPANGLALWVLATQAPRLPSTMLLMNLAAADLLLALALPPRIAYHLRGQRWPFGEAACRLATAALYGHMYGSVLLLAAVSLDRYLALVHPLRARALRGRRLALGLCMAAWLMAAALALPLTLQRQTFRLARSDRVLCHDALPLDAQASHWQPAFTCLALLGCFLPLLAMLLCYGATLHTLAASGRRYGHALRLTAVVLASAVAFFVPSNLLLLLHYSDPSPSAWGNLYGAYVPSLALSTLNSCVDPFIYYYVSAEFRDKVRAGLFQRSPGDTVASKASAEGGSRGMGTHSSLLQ

320 GPCRs [14] = molecular target: 320 GPCRs (Homo sapiens, UniProt Q13255)
320 GPCRs [15] = molecular target: 320 GPCRs (Homo sapiens, UniProt P47775)
320 GPCRs [16] = molecular target: 320 GPCRs (Homo sapiens, UniProt Q15760)
Chain of 320 GPCRs (Homo sapiens, UniProt Q15760) (Q15760 whole entry): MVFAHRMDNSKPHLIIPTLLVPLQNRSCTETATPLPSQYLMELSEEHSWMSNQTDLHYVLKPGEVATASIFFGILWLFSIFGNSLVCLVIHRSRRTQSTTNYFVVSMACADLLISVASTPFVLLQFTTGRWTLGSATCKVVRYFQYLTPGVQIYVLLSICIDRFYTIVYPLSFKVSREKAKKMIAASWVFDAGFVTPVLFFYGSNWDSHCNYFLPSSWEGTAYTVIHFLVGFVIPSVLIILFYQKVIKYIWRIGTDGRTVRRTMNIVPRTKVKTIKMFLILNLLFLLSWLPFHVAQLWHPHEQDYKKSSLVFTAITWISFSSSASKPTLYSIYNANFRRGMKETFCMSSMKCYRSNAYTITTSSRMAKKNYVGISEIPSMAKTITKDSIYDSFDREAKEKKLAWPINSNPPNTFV

320 GPCRs [17] = molecular target: 320 GPCRs (Homo sapiens, UniProt P51684)
320 GPCRs [18] = molecular target: 320 GPCRs (Homo sapiens, UniProt P35410)
320 GPCRs [19] = molecular target: 320 GPCRs (Homo sapiens, UniProt P35462)
320 GPCRs [20] = molecular target: 320 GPCRs (Homo sapiens, UniProt Q8TDU9)
320 GPCRs [21] = molecular target: 320 GPCRs (Homo sapiens, UniProt Q9Y653)
320 GPCRs [22] = molecular target: 320 GPCRs (Homo sapiens, UniProt P47901)
Chain of 320 GPCRs (Homo sapiens, UniProt P47901) (P47901 whole entry): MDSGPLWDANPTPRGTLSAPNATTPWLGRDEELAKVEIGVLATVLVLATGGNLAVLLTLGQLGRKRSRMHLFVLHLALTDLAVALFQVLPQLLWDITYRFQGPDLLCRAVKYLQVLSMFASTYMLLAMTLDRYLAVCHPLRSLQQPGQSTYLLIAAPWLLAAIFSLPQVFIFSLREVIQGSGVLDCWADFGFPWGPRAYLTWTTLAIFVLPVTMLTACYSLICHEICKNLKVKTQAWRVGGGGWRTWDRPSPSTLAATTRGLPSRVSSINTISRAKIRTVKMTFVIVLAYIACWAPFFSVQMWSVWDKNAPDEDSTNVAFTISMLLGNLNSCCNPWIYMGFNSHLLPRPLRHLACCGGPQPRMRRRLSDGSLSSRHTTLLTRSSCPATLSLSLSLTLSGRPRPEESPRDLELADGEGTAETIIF

320 GPCRs [23] = molecular target: 320 GPCRs (Homo sapiens, UniProt Q14439)
320 GPCRs [24] = molecular target: 320 GPCRs (Homo sapiens, UniProt Q03431)
Chain of 320 GPCRs (Homo sapiens, UniProt Q03431) (Q03431 27-593): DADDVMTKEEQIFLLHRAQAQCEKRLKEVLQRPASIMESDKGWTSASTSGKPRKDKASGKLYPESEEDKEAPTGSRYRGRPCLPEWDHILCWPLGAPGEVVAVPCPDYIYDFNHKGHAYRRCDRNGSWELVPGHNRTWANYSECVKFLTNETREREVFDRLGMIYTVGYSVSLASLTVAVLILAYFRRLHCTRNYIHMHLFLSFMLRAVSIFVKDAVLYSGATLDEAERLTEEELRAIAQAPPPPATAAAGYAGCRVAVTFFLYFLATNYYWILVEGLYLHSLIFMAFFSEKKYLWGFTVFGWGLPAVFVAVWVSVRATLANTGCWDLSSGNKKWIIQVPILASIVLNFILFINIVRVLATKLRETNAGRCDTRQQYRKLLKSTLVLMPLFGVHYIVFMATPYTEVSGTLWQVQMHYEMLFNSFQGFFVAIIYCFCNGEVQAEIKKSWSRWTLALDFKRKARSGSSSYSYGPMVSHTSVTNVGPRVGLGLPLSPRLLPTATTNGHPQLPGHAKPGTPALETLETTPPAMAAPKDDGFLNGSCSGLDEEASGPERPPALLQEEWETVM

320 GPCRs [25] = molecular target: 320 GPCRs (Homo sapiens, UniProt P13945)
Chain of 320 GPCRs (Homo sapiens, UniProt P13945) (P13945 whole entry): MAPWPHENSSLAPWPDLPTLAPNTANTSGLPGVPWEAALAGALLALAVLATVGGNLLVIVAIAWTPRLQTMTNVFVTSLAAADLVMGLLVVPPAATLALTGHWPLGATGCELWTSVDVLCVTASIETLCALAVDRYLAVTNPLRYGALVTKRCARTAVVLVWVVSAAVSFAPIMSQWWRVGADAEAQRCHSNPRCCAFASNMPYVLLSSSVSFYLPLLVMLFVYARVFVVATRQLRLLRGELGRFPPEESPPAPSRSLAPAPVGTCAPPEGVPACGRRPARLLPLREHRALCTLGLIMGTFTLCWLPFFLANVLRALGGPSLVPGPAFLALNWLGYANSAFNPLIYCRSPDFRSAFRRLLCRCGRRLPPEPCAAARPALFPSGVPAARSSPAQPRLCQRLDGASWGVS

320 GPCRs [26] = molecular target: 320 GPCRs (Homo sapiens, UniProt O14804)
Chain of 320 GPCRs (Homo sapiens, UniProt O14804) (O14804 whole entry): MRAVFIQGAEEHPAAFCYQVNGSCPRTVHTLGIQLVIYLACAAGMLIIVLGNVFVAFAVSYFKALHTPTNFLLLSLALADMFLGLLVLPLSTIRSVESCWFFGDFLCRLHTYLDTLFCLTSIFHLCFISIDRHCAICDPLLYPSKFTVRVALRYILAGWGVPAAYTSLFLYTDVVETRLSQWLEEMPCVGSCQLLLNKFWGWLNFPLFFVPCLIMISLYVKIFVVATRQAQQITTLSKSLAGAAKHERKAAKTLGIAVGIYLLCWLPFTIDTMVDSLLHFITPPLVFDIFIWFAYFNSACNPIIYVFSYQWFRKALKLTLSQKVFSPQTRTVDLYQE

320 GPCRs [27] = molecular target: 320 GPCRs (Homo sapiens, UniProt Q96P68)
320 GPCRs [28] = molecular target: 320 GPCRs (Homo sapiens, UniProt P41146)
320 GPCRs [29] = molecular target: 320 GPCRs (Homo sapiens, UniProt P24530)
Chain of 320 GPCRs (Homo sapiens, UniProt P24530) (P24530 27-442): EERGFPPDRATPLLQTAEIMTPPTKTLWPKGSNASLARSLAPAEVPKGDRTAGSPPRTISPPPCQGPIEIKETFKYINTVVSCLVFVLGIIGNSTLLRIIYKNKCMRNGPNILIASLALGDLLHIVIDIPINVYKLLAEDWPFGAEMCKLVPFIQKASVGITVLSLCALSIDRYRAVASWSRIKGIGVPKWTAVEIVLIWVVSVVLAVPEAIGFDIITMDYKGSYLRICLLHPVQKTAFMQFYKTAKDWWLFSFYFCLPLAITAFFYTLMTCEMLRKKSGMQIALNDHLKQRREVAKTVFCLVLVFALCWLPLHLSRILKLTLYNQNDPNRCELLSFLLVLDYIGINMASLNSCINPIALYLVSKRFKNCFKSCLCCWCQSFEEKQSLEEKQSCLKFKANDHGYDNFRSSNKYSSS

320 GPCRs [30] = molecular target: 320 GPCRs (Homo sapiens, UniProt P47871)
320 GPCRs [31] = molecular target: 320 GPCRs (Homo sapiens, UniProt Q16602)
320 GPCRs [32] = molecular target: 320 GPCRs (Homo sapiens, UniProt Q9UKP6)
Chain of 320 GPCRs (Homo sapiens, UniProt Q9UKP6) (Q9UKP6 whole entry): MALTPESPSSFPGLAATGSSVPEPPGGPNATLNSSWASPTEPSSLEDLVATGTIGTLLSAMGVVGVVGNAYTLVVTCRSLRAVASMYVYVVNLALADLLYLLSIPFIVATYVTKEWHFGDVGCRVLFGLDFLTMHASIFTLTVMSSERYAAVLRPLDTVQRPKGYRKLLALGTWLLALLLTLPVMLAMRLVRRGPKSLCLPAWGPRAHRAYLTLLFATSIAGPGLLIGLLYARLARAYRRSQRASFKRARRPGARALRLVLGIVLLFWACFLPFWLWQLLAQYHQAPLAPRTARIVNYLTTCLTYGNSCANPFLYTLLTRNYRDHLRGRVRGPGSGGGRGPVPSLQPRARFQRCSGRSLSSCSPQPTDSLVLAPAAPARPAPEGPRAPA

320 GPCRs [33] = molecular target: 320 GPCRs (Homo sapiens, UniProt P43119)
Chain of 320 GPCRs (Homo sapiens, UniProt P43119) (P43119 whole entry): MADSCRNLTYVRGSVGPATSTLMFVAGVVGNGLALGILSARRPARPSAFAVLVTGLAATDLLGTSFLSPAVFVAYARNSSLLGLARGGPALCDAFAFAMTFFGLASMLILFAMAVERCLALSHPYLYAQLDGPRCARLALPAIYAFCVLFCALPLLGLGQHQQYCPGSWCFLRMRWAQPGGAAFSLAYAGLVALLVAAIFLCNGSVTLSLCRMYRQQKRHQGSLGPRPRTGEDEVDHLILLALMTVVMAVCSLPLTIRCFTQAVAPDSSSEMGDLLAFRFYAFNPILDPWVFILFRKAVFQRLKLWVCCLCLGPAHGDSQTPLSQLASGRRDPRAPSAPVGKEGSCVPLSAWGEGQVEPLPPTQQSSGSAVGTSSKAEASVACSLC

320 GPCRs [34] = molecular target: 320 GPCRs (Homo sapiens, UniProt P25100)
320 GPCRs [35] = molecular target: 320 GPCRs (Homo sapiens, UniProt Q16581)
320 GPCRs [36] = molecular target: 320 GPCRs (Homo sapiens, UniProt P48039)
320 GPCRs [37] = molecular target: 320 GPCRs (Homo sapiens, UniProt Q9H1C0)
320 GPCRs [38] = molecular target: 320 GPCRs (Homo sapiens, UniProt Q8NFN8)
320 GPCRs [39] = molecular target: 320 GPCRs (Homo sapiens, UniProt P22888)
320 GPCRs [40] = molecular target: 320 GPCRs (Homo sapiens, UniProt P23945)
320 GPCRs [41] = molecular target: 320 GPCRs (Homo sapiens, UniProt Q96P69)
320 GPCRs [42] = molecular target: 320 GPCRs (Homo sapiens, UniProt Q99678)
Chain of 320 GPCRs (Homo sapiens, UniProt Q99678) (Q99678 whole entry): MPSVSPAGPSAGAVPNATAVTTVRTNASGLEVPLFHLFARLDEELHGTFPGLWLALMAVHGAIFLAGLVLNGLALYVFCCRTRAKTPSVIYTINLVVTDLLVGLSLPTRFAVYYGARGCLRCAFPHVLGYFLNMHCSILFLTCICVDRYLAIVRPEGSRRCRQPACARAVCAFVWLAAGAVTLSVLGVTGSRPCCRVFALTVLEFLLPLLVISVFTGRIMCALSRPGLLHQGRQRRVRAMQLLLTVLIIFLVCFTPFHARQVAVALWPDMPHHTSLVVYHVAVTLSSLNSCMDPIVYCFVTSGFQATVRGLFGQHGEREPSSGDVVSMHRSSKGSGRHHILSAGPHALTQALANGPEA

320 GPCRs [43] = molecular target: 320 GPCRs (Homo sapiens, UniProt Q8TDS4)

SMILES: O=C(O)C1CCC2(CC1)CC(Nc1ncnc3[nH]c4c(F)cccc4c13)C2 (stereo not shown) [Compound 74, OC(=O)C1CCC2(CC(C2)NC=3N=CN=C4NC=5C(F)=CC=CC5C34)CC1]
- RLU (Fold over Basal) (320 GPCRs [1]): 0.9 Fold over Basal and 1.5 Fold over Basal and 0.8 Fold over Basal and 1.3 Fold over Basal
- RLU (Fold over Basal) (320 GPCRs [2]): 1.2 Fold over Basal and 1.1 Fold over Basal and 0.7 Fold over Basal
- RLU (Fold over Basal) (320 GPCRs [3]): 1 Fold over Basal
- RLU (Fold over Basal) (320 GPCRs [4]): 0.8 Fold over Basal and 1.4 Fold over Basal and 1 Fold over Basal and 1.1 Fold over Basal
- RLU (Fold over Basal) (320 GPCRs [5]): 1.1 Fold over Basal and 0.8 Fold over Basal and 1.5 Fold over Basal
- RLU (Fold over Basal) (320 GPCRs [6]): 0.3 Fold over Basal and 0.2 Fold over Basal
- RLU (Fold over Basal) (320 GPCRs [7]): 0.7 Fold over Basal and 0.6 Fold over Basal and 0.8 Fold over Basal
- RLU (Fold over Basal) (320 GPCRs [8]): 0.8 Fold over Basal and 0.7 Fold over Basal and 0.9 Fold over Basal and 0.6 Fold over Basal
- RLU (Fold over Basal) (320 GPCRs [9]): 1 Fold over Basal and 0.9 Fold over Basal
- RLU (Fold over Basal) (320 GPCRs [10]): 1 Fold over Basal and 0.5 Fold over Basal and 0.6 Fold over Basal
- RLU (Fold over Basal) (320 GPCRs [11]): 0.4 Fold over Basal and 0.5 Fold over Basal and 0.6 Fold over Basal
- RLU (Fold over Basal) (320 GPCRs [12]): 0.5 Fold over Basal and 0.6 Fold over Basal and 0.8 Fold over Basal
- RLU (Fold over Basal) (320 GPCRs [13]): 1 Fold over Basal and 0.7 Fold over Basal and 1.2 Fold over Basal
- RLU (Fold over Basal) (320 GPCRs [14]): 0.9 Fold over Basal and 1.1 Fold over Basal and 0.8 Fold over Basal
- RLU (Fold over Basal) (320 GPCRs [15]): 0.6 Fold over Basal and 1 Fold over Basal
- RLU (Fold over Basal) (320 GPCRs [16]): 1 Fold over Basal and 1.3 Fold over Basal and 0.9 Fold over Basal and 1.8 Fold over Basal
- RLU (Fold over Basal) (320 GPCRs [17]): 0.7 Fold over Basal and 1 Fold over Basal and 0.9 Fold over Basal
- RLU (Fold over Basal) (320 GPCRs [18]): 0.7 Fold over Basal and 1 Fold over Basal and 0.9 Fold over Basal and 0.6 Fold over Basal
- RLU (Fold over Basal) (320 GPCRs [19]): 0.5 Fold over Basal and 0.6 Fold over Basal
- RLU (Fold over Basal) (320 GPCRs [20]): 1.1 Fold over Basal and 0.6 Fold over Basal and 0.7 Fold over Basal
- RLU (Fold over Basal) (320 GPCRs [21]): 0.9 Fold over Basal and 0.7 Fold over Basal and 0.8 Fold over Basal
- RLU (Fold over Basal) (320 GPCRs [22]): 0.9 Fold over Basal and 1 Fold over Basal and 0.5 Fold over Basal
- RLU (Fold over Basal) (320 GPCRs [23]): 0.8 Fold over Basal and 1.3 Fold over Basal and 1 Fold over Basal
- RLU (Fold over Basal) (320 GPCRs [24]): 1.2 Fold over Basal and 1.1 Fold over Basal and 1.4 Fold over Basal
- RLU (Fold over Basal) (320 GPCRs [25]): 1.4 Fold over Basal and 1.2 Fold over Basal and 1.1 Fold over Basal and 1.3 Fold over Basal
- RLU (Fold over Basal) (320 GPCRs [26]): 1.3 Fold over Basal and 0.9 Fold over Basal and 1.4 Fold over Basal and 0.8 Fold over Basal
- RLU (Fold over Basal) (320 GPCRs [27]): 0.3 Fold over Basal
- RLU (Fold over Basal) (320 GPCRs [28]): 0.8 Fold over Basal and 0.7 Fold over Basal and 1.3 Fold over Basal and 0.9 Fold over Basal
- RLU (Fold over Basal) (320 GPCRs [29]): 1.2 Fold over Basal and 0.6 Fold over Basal and 0.8 Fold over Basal and 0.9 Fold over Basal
- RLU (Fold over Basal) (320 GPCRs [30]): 1 Fold over Basal and 0.5 Fold over Basal and 0.8 Fold over Basal
- RLU (Fold over Basal) (320 GPCRs [31]): 0.9 Fold over Basal and 1.2 Fold over Basal and 1.4 Fold over Basal and 1.1 Fold over Basal
- RLU (Fold over Basal) (320 GPCRs [32]): 0.6 Fold over Basal and 0.7 Fold over Basal and 0.9 Fold over Basal
- RLU (Fold over Basal) (320 GPCRs [33]): 0.9 Fold over Basal and 0.6 Fold over Basal and 0.7 Fold over Basal and 1 Fold over Basal
- RLU (Fold over Basal) (320 GPCRs [34]): 1.5 Fold over Basal and 1.7 Fold over Basal and 1.6 Fold over Basal and 0.9 Fold over Basal
- RLU (Fold over Basal) (320 GPCRs [35]): 1.2 Fold over Basal and 1.3 Fold over Basal and 0.8 Fold over Basal and 1 Fold over Basal
- RLU (Fold over Basal) (320 GPCRs [36]): 0.9 Fold over Basal and 0.8 Fold over Basal
- RLU (Fold over Basal) (320 GPCRs [37]): 0.9 Fold over Basal and 0.8 Fold over Basal and 1.3 Fold over Basal
- RLU (Fold over Basal) (320 GPCRs [38]): 1.2 Fold over Basal and 1 Fold over Basal and 0.6 Fold over Basal
- RLU (Fold over Basal) (320 GPCRs [39]): 1.7 Fold over Basal and 1.8 Fold over Basal and 1.4 Fold over Basal
- RLU (Fold over Basal) (320 GPCRs [40]): 1 Fold over Basal and 0.6 Fold over Basal
- RLU (Fold over Basal) (320 GPCRs [41]): 1 Fold over Basal and 0.5 Fold over Basal and 0.9 Fold over Basal
- RLU (Fold over Basal) (320 GPCRs [42]): 0.9 Fold over Basal and 1.6 Fold over Basal and 0.8 Fold over Basal
- RLU (Fold over Basal) (320 GPCRs [43]): 1.1 Fold over Basal and 1.6 Fold over Basal and 1.9 Fold over Basal and 1.5 Fold over Basal
